Data on six molecules can be found in ChEMBL document CHEMBL5724914, “Linking interpersonal differences in gut microbiota composition and drug biotransformation activity” (2024).

For data set [1] the following is noted: human gut metagenome, 24 h, 2 µM.
A short description of data set [2]: The drug is tested on Z-001 corresponding to mouse gut metagenome with ENA study accession number: PRJEB37062 and ENA sample accession number: ERS12561801 for biotransformation under anaerobic condition. The drug concentrations were measured over 9 timepoints collected between 0 and 24 hours of incubation by liquid-chromatography-coupled mass spectrometry (LC–MS). The note with it: 2 µM.

A short description of data set [3]: The drug is tested on WLS-010 corresponding to human gut metagenome with ENA study accession number: PRJEB37062 and ENA sample accession number: ERS12561743 for biotransformation under anaerobic condition. The drug concentrations were measured over 9 timepoints collected between 0 and 24 hours of incubation by liquid-chromatography-coupled mass spectrometry (LC–MS). The note with it: 2 µM.

For data set [4] the following is noted: human gut metagenome, 24 h, 2 µM. This is another data set of the same source.
For data set [5] the following is noted: human gut metagenome, 24 h, 2 µM. This is another data set of the same source.
Data set [6] is described as follows: The drug is tested on Z-020 corresponding to rabbit gut metagenome with ENA study accession number: PRJEB37062 and ENA sample accession number: ERS12561819 for biotransformation under anaerobic condition. The drug concentrations were measured over 9 timepoints collected between 0 and 24 hours of incubation by liquid-chromatography-coupled mass spectrometry (LC–MS). As to conditions: 2 µM.

Data set [7] in a line: The drug is tested on Z-011 corresponding to mouse gut metagenome with ENA study accession number: PRJEB37062 and ENA sample accession number: ERS12561811 for biotransformation under anaerobic condition. The drug concentrations were measured over 9 timepoints collected between 0 and 24 hours of incubation by liquid-chromatography-coupled mass spectrometry (LC–MS). As to conditions: 2 µM.

The nature of data set [8]: The drug is tested on Z-018 corresponding to pig gut metagenome with ENA study accession number: PRJEB37062 and ENA sample accession number: ERS12561817 for biotransformation under anaerobic condition. The drug concentrations were measured over 9 timepoints collected between 0 and 24 hours of incubation by liquid-chromatography-coupled mass spectrometry (LC–MS). The note with it: 2 µM.

For data set [9] the following is noted: human gut metagenome, 24 h, 2 µM. The source holds these as a separate data set.
Data set [10] is described as follows: The drug is tested on WLS-220 corresponding to human gut metagenome with ENA study accession number: PRJEB37062 and ENA sample accession number: ERS12561769 for biotransformation under anaerobic condition. The drug concentrations were measured over 9 timepoints collected between 0 and 24 hours of incubation by liquid-chromatography-coupled mass spectrometry (LC–MS). The note with it: 2 µM.

A short description of data set [11]: The drug is tested on Z-024 corresponding to pig gut metagenome with ENA study accession number: PRJEB37062 and ENA sample accession number: ERS12561823 for biotransformation under anaerobic condition. The drug concentrations were measured over 9 timepoints collected between 0 and 24 hours of incubation by liquid-chromatography-coupled mass spectrometry (LC–MS). As to conditions: 2 µM.

For data set [12] the following is noted: human gut metagenome, 24 h, 2 µM. The source holds these as a separate data set.
The nature of data set [13]: The drug is tested on WLS-052 corresponding to human gut metagenome with ENA study accession number: PRJEB37062 and ENA sample accession number: ERS12561747 for biotransformation under anaerobic condition. The drug concentrations were measured over 9 timepoints collected between 0 and 24 hours of incubation by liquid-chromatography-coupled mass spectrometry (LC–MS). As to conditions: 2 µM.

A short description of data set [14]: The drug is tested on WLS-069 corresponding to human gut metagenome with ENA study accession number: PRJEB37062 and ENA sample accession number: ERS12561748 for biotransformation under anaerobic condition. The drug concentrations were measured over 9 timepoints collected between 0 and 24 hours of incubation by liquid-chromatography-coupled mass spectrometry (LC–MS). As to conditions: 2 µM.

Data set [15] can be described thus: The drug is tested on WLS-082 corresponding to human gut metagenome with ENA study accession number: PRJEB37062 and ENA sample accession number: ERS12561751 for biotransformation under anaerobic condition. The drug concentrations were measured over 9 timepoints collected between 0 and 24 hours of incubation by liquid-chromatography-coupled mass spectrometry (LC–MS). The note with it: 2 µM.

Data set [16] can be described thus: The drug is tested on Z-012 corresponding to metagenome with ENA study accession number: PRJEB37062 and ENA sample accession number: ERS12561812 for biotransformation under anaerobic condition. The drug concentrations were measured over 9 timepoints collected between 0 and 24 hours of incubation by liquid-chromatography-coupled mass spectrometry (LC–MS). The note with it: 2 µM.

Data set [17] is described as follows: The drug is tested on Z-029 corresponding to rat gut metagenome with ENA study accession number: PRJEB37062 and ENA sample accession number: ERS12561828 for biotransformation under anaerobic condition. The drug concentrations were measured over 9 timepoints collected between 0 and 24 hours of incubation by liquid-chromatography-coupled mass spectrometry (LC–MS). As to conditions: 2 µM.

Data set [18] is described as follows: The drug is tested on Z-028 corresponding to mouse gut metagenome with ENA study accession number: PRJEB37062 and ENA sample accession number: ERS12561827 for biotransformation under anaerobic condition. The drug concentrations were measured over 9 timepoints collected between 0 and 24 hours of incubation by liquid-chromatography-coupled mass spectrometry (LC–MS). The note with it: 2 µM.

For data set [19] the following is noted: human gut metagenome, 24 h, 2 µM. The source holds these as a separate data set.
The conditions of data set [20]: human gut metagenome, 24 h, 2 µM. The source holds these as a separate data set.

Where a SMILES comes first, the peptide text is derived from it. [ ]: non-standard residue; d: D form. pGlu = O=C1CC[C@@H](C(=O)O)N1; Thz = O=C(O)[C@@H]1CSCN1
Further: call rule not given here.

On to `CCCCC(=O)N(Cc1ccc(-c2ccccc2-c2nnn[nH]2)cc1)[C@H](C(=O)O)C(C)C`, for which the “Bacterial Biotransformation” value in data set [1] is on record as “Compound metabolized”; in data set [2], “Compound NOT metabolized”; in data set [3] it was “Compound metabolized”; in [4], “Compound metabolized”; in [5] it was “Compound metabolized”; in data set [6] it was “Compound NOT metabolized”. For the same molecule, the “Bacterial Biotransformation” value in data set [7] is “Compound NOT metabolized”; in [8], “Compound NOT metabolized”; in data set [9] it was “Compound metabolized”; in [10], “Compound NOT metabolized”; in [11], “Compound NOT metabolized”; in [12] it was “Compound metabolized”. The “Bacterial Biotransformation” value in [13] is given as “Compound metabolized”; in data set [14] it was “Compound metabolized”; in data set [15] it was “Compound metabolized”; in [16] it was “Compound NOT metabolized”; in data set [17], “Compound NOT metabolized”; in data set [18] it was “Compound NOT metabolized”. For the same molecule, the “Bacterial Biotransformation” value in data set [19] was “Compound metabolized”; in data set [20] it was “Compound NOT metabolized”.
Take `CCC(COC(=O)c1cc(OC)c(OC)c(OC)c1)(c1ccccc1)N(C)C.O=C(O)/C=C\C(=O)O` (stereo not drawn): the “Bacterial Biotransformation” value in data set [1] is reported as “Compound NOT metabolized”; in data set [2] it was “Compound NOT metabolized”; in data set [3], “Compound NOT metabolized”; in data set [4] it was “Compound metabolized”; in data set [5], “Compound metabolized”; in data set [6], “Compound metabolized”. The “Bacterial Biotransformation” value in data set [7] is “Compound NOT metabolized”; in data set [8] it was “Compound metabolized”; in data set [9], “Compound metabolized”; in data set [10] it was “Compound metabolized”; in data set [11] it was “Compound NOT metabolized”; in data set [12], “Compound metabolized”. Further, the “Bacterial Biotransformation” value in data set [13] is “Compound NOT metabolized”; in [14] it was “Compound metabolized”; in data set [15], “Compound metabolized”; in [16], “Compound NOT metabolized”; in data set [17], “Compound NOT metabolized”; in data set [18], “Compound metabolized”. Also, the “Bacterial Biotransformation” value in [19] and in data set [20] was “Compound NOT metabolized” in each case.
As to `COc1ccc(CCN(C)CCCC(C#N)(c2ccc(OC)c(OC)c2)C(C)C)cc1OC` (stereo not drawn), the “Bacterial Biotransformation” value in data set [1] is given as “Compound metabolized”; in data set [2], “Compound NOT metabolized”; in [3], “Compound metabolized”; in data set [4] it was “Compound metabolized”; in [5] it was “Compound metabolized”; in data set [6] it was “Compound metabolized”. In addition, the “Bacterial Biotransformation” value in [7] is “Compound NOT metabolized”; in data set [8], “Compound metabolized”; in [9], “Compound metabolized”; in [10] it was “Compound metabolized”; in data set [11], “Compound metabolized”; in [12] it was “Compound metabolized”. Moreover, the “Bacterial Biotransformation” value in data set [13] was “Compound NOT metabolized”; in data set [14] it was “Compound metabolized”; in data set [15] it was “Compound metabolized”; in data set [16], “Compound metabolized”; in [17] it was “Compound NOT metabolized”; in data set [18], “Compound metabolized”. Further, the “Bacterial Biotransformation” value in data set [19] and in data set [20] was “Compound NOT metabolized” in each case.
As for `O=C1CC[C@@H](C(=O)N2CSC[C@H]2C(=O)O)N1` [PIDOTIMOD] ([pGlu]-[Thz]-OH), the “Bacterial Biotransformation” value in [2], in [3], in [4], in data set [5], in [6] and in [7] was “Compound NOT metabolized” in each case. The “Bacterial Biotransformation” value is “Compound metabolized” in data set [8]; “Compound metabolized” in data set [9]; “Compound NOT metabolized” in data set [10]; “Compound metabolized” in [11]; “Compound metabolized” in [12]; “Compound NOT metabolized” in [15]. Further, the “Bacterial Biotransformation” value in data set [16], in data set [17], in [18], in [19] and in [20] was “Compound NOT metabolized” each time.
Regarding `COc1cc2nc(N3CCN(C(=O)c4ccco4)CC3)nc(N)c2cc1OC` [PRAZOSIN], the “Bacterial Biotransformation” value in [1] is “Compound metabolized”; in data set [2], “Compound NOT metabolized”; in data set [3], “Compound metabolized”; in [4], “Compound metabolized”; in [5], “Compound NOT metabolized”; in data set [6] it was “Compound NOT metabolized”. Also, the “Bacterial Biotransformation” value in [7] is “Compound NOT metabolized”; in [8], “Compound NOT metabolized”; in data set [9], “Compound metabolized”; in data set [10], “Compound metabolized”; in data set [11], “Compound NOT metabolized”; in data set [12], “Compound metabolized”. Besides, the “Bacterial Biotransformation” value in data set [13] was “Compound NOT metabolized”; in [15], “Compound metabolized”; in data set [16], “Compound NOT metabolized”; in [17], “Compound NOT metabolized”; in data set [18], “Compound NOT metabolized”; in [19] it was “Compound NOT metabolized”. The “Bacterial Biotransformation” value in data set [20] is “Compound NOT metabolized”.
In the case of `COC(=O)[C@H]1[C@H]2C[C@@H]3c4[nH]c5cc(OC)ccc5c4CCN3C[C@H]2C[C@@H](OC(=O)c2cc(OC)c(OC)c(OC)c2)[C@@H]1OC` [RESERPINE], the “Bacterial Biotransformation” value is “Compound metabolized” in data set [1]; “Compound NOT metabolized” in [2]; “Compound metabolized” in data set [3]; “Compound NOT metabolized” in data set [4]; “Compound metabolized” in data set [5]; “Compound NOT metabolized” in data set [6]. Further, the “Bacterial Biotransformation” value in [7] is on record as “Compound NOT metabolized”; in data set [8], “Compound NOT metabolized”; in data set [9] it was “Compound metabolized”; in [11], “Compound NOT metabolized”; in data set [13], “Compound NOT metabolized”; in data set [14], “Compound metabolized”. In addition, the “Bacterial Biotransformation” value in [15] was “Compound metabolized”; in [16], “Compound NOT metabolized”; in data set [17], “Compound NOT metabolized”; in data set [18] it was “Compound NOT metabolized”; in data set [19], “Compound NOT metabolized”.
